Patent US20020028472A1, “Methods for identifying inhibitors of the anaphase promoting complex” (priority 2000, published 2002)

Biological target: T1, APC11 fused to Maltose Binding Protein (MBP-APC11) (Homo sapiens, UniProt Q9NYG5)
T1 construct: obtained by inserting the APC11 coding region into the commercially available vector pMAL, New England Biolabs; made in house; host or cells: E. coli, grown with 1 mM ZnCl2; purified on amylose resin
Test: FRET assay of APC11-mediated formation of multiubiquitin chains
Assay type: biochemical
Conditions: DTT titrated 0 to 30 mM; 60 min at 37° C.; E1 UBA1, E2 HIS-UBCH5b; FRET europium/allophycocyanin

T1 sequence (Q9NYG5 whole entry, the tested form may be a part): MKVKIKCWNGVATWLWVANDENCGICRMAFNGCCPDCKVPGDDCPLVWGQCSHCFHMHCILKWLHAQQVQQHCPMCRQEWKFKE

SMILES: O[C@H](CS)[C@H](O)CS (racemic) [DTT, dithiothreitol]
- inhibition of the APC11-mediated formation of multiubiquitin chains: inhibition
